For orientation: EC50 means the concentration giving half of the maximal effect. A high value points to lower potency in that assay. As usually defined, the inhibition is the change of the read-out against control, counted positive when it falls.

Molecules are shown by their SMILES.

Assay [1] deals with IL-6 (THP-1 human monocyte cell line). Description: IL-6 inhibition in LPS-stimulated THP-1 cells (HTRF). In kind it is cell-based. The note with it: LPS 500 ng/mL; for EC50: 22 hours, IL6 HTRF; for inhibition at 10 µM: given for EC50 >10 μM, read-out: percent inhibition at 10 μM. In a few lines:
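THP-1 cells, serum-reduced to 1% FBS for 24 h, preincubated 2 h at 37° C with compound (10-point, 1:3 series, 0.1% DMSO), then stimulated with 500 ng/mL LPS for 22 h. IL-6 quantified by HTRF 665/620 nm ratio, normalized to DMSO; EC50 by four-parameter fit, else percent inhibition at 10 μM.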
For orientation: TR-FRET usually uses a lanthanide donor and a delayed reading to cut background.

Assay [2] concerns primary human fibroblasts derived from IPF patients (LL29 cells). Nature of the assay: Inhibition of fibrotic process, αSMA staining in TGF-β1 treated LL29 fibroblasts. Type of assay: cell-based. The note with it: Fibroblast, 96 h, TGF-β1 20 ng/mL, 4 days; for EC50: % αSMA positive cells; for inhibition at 10 µM: given for EC50 >10 μM, read-out: percent inhibition at 10 μM. Put shortly:
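IPF-patient LL29 lung fibroblasts in 1% FBS medium received compound (11-point, 1:2 dilution, 0.1% DMSO) plus TGF-β1 20 ng/mL, 4 days at 37 °C. Percent αSMA-positive cells among SYTOX-negative cells quantified by immunofluorescence imaging, normalized to TGF-β1/DMSO wells. EC50 by non-linear regression on triplicates; above 10 μM, % inhibition at 10 μM given.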

As to `CN1CCN(c2ccnc3[nH]c(-c4n[nH]c5ncc(-c6cncc(NC(=O)C7CCCCC7)c6)cc45)cc23)CC1` [Compound 247, N-(5-(3-(4-(4-Methylpiperazin-1-yl)-1H-pyrrolo[2,3-b]pyridin-2-yl)-1H-pyrazolo[3,4-b]pyridin-5-yl)pyridin-3-yl)cyclohexanecarboxamide], the results for the concentration for a half-maximal effect (EC50) in assay [1] and in assay [2] were 496 nM and 5030 nM, respectively.
For `c1cncc(-c2cnc3[nH]nc(-c4cc5cccnc5[nH]4)c3c2)c1` [Compound 256, 5-(Pyridin-3-yl)-3-(1H-pyrrolo[2,3-b]pyridin-2-yl)-1H-pyrazolo[3,4-b]pyridine] the same measures were 121 nM and 529 nM.
For `O=C(Nc1cncc(-c2cnc3[nH]nc(-c4cc5cccnc5[nH]4)c3c2)c1)c1ccccc1` [Compound 263, N-(5-(3-(1H-Pyrrolo[2,3-b]pyridin-2-yl)-1H-pyrazolo[3,4-b]pyridin-5-yl)pyridin-3-yl)benzamide] the same measures were 310 nM and 363 nM.
Taken in the same sequence, the figures for `CC(C)(C)CC(=O)Nc1cncc(-c2cnc3[nH]nc(-c4cc5cccnc5[nH]4)c3c2)c1` [Compound 268, N-(5-(3-(1H-Pyrrolo[2,3-b]pyridin-2-yl)-1H-pyrazolo[3,4-b]pyridin-5-yl)pyridin-3-yl)-3,3-dimethylbutanamide] were 359 nM and 420 nM.
As to `c1cnc2[nH]c(-c3n[nH]c4ncc(-c5ccncc5)cc34)cc2c1` [Compound 270, 5-(Pyridin-4-yl)-3-(1H-pyrrolo[2,3-b]pyridin-2-yl)-1H-pyrazolo[3,4-b]pyridine], the EC50 in assay [1] came out at 4650 nM. In addition, in assay [2], the EC50 was more than 10000 nM and the inhibition at 10 µM was 55.6%.
Consider `CCCCC(=O)Nc1cncc(-c2cnc3[nH]nc(-c4cc5cccnc5[nH]4)c3c2)c1` [Compound 271, N-(5-(3-(1H-Pyrrolo[2,3-b]pyridin-2-yl)-1H-pyrazolo[3,4-b]pyridin-5-yl)pyridin-3-yl)pentanamide], for which the results for the EC50 in assay [1] and in assay [2] were 41 nM and 5350 nM, respectively.
For `O=C(Nc1cncc(-c2cnc3[nH]nc(-c4cc5cccnc5[nH]4)c3c2)c1)C1CCCC1` [Compound 274, N-(5-(3-(1H-Pyrrolo[2,3-b]pyridin-2-yl)-1H-pyrazolo[3,4-b]pyridin-5-yl)pyridin-3-yl)cyclopentanecarboxamide] the same measures were 415 nM and 760 nM.
In the case of `O=C(Nc1cncc(-c2cnc3[nH]nc(-c4cc5cccnc5[nH]4)c3c2)c1)C1CCCCC1` [Compound 275, N-(5-(3-(1H-Pyrrolo[2,3-b]pyridin-2-yl)-1H-pyrazolo[3,4-b]pyridin-5-yl)pyridin-3-yl)cyclohexanecarboxamide], the results for the EC50 in assay [1] and in assay [2] were 63 nM and 1560 nM, respectively.
Regarding `CC(C)(C)CC(=O)Nc1cncc(-c2cnc3[nH]nc(-c4cc5c(-c6ccoc6)ccnc5[nH]4)c3c2)c1` [Compound 324, N-(5-(3-(4-(Furan-3-yl)-1H-pyrrolo[2,3-b]pyridin-2-yl)-1H-pyrazolo[3,4-b]pyridin-5-yl)pyridin-3-yl)-3,3-dimethylbutanamide], in assay [1], the EC50 was more than 10000 nM and the inhibition at 10 µM was found to be 28.6%. For the same compound, in assay [2], the EC50 was more than 10000 nM and the inhibition at 10 µM is 0%.
Consider `CN(C)c1cncc(-c2cnc3[nH]nc(-c4cc5c(-c6cccs6)ccnc5[nH]4)c3c2)c1` [Compound 343, N,N-Dimethyl-5-(3-(4-(thiophen-2-yl)-1H-pyrrolo[2,3-b]pyridin-2-yl)-1H-pyrazolo[3,4-b]pyridin-5-yl)pyridin-3-amine], for which the EC50 was found to be 32 nM in assay [1] and 1750 nM in assay [2].
In the case of `O=C(Nc1cncc(-c2cnc3[nH]nc(-c4cc5c(-c6cccs6)ccnc5[nH]4)c3c2)c1)C1CC1` [Compound 356, N-(5-(3-(4-(Thiophen-2-yl)-1H-pyrrolo[2,3-b]pyridin-2-yl)-1H-pyrazolo[3,4-b]pyridin-5-yl)pyridin-3-yl)cyclopropanecarboxamide], in assay [1], the response was half-maximal at 280 nM (EC50). Further, in assay [2], the concentration for a half-maximal effect (EC50) was more than 10000 nM and the inhibition at 10 µM was found to be 0%.
`CN(C)CCNc1cc(F)cc(-c2ccnc3[nH]c(-c4n[nH]c5ncc(-c6cncc(NC(=O)C(C)(C)C)c6)cc45)cc23)c1` [Compound 456, N-(5-(3-(4-(3-((2-(Dimethylamino)ethyl)amino)-5-fluorophenyl)-1H-pyrrolo [2,3-b]pyridin-2-yl)-1H-pyrazolo[3,4-b]pyridin-5-yl)pyridin-3-yl)pivalamide] yielded an EC50 in assay [1] of 1520 nM. Besides, in assay [2], the EC50 is more than 10000 nM and the inhibition at 10 µM is 0%.
For `CN(C)CCNc1cc(F)cc(-c2ccnc3[nH]c(-c4n[nH]c5ncc(-c6cncc(NC(=O)C7CCC7)c6)cc45)cc23)c1` [Compound 469, N-(5-(3-(4-(3-((2-(Dimethylamino)ethyl)amino)-5-fluorophenyl)-1H-pyrrolo [2,3-b]pyridin-2-yl)-1H-pyrazolo[3,4-b]pyridin-5-yl)pyridin-3-yl)cyclobutanecarboxamide], the results for the EC50 in assay [1] and in assay [2] were 222 nM and more than 10000 nM, respectively. In addition, the inhibition at 10 µM in assay [2] worked out at 0%.
Consider `Fc1cccc(-c2ccnc3[nH]c(-c4n[nH]c5ncc(-c6cncc(OCc7ccccc7)c6)cc45)cc23)c1` [Compound 518, 5-(5-(Benzyloxy)pyridin-3-yl)-3-(4-(3-fluorophenyl)-1H-pyrrolo[2,3-b]pyridin-2-yl)-1H-pyrazolo[3,4-b]pyridine], for which the EC50 in assay [1] and in assay [2] was more than 10000 nM in each case. The inhibition at 10 µM in assay [1] was determined as 6.3%; in assay [2], 0%.
Turning to `Oc1cncc(-c2cnc3[nH]nc(-c4cc5c(-c6ccc(F)cc6)ccnc5[nH]4)c3c2)c1` [Compound 533, 5-(3-(4-(4-Fluorophenyl)-1H-pyrrolo[2,3-b]pyridin-2-yl)-1H-pyrazolo[3,4-b]pyridin-5-yl)pyridin-3-ol], in assay [1], the EC50 is more than 10000 nM and the inhibition at 10 µM came out at 20.7%. The same compound gave an EC50 in assay [2] of 6760 nM.
For `CN(C)CCOc1cncc(-c2cnc3[nH]nc(-c4cc5c(-c6cccnc6)ccnc5[nH]4)c3c2)c1` [Compound 563, N,N-dimethyl-2-((5-(3-(4-(pyridin-3-yl)-1H-pyrrolo[2,3-b]pyridin-2-yl)-1H-pyrazolo[3,4-b]pyridin-5-yl)pyridin-3-yl)oxy)ethan-1-amine] the same measures were more than 10000 nM, 18.7% and 2440 nM.
Take `O=C(CC1CCNCC1)Nc1cncc(-c2cnc3[nH]nc(-c4cc5c(-c6ccncc6)ccnc5[nH]4)c3c2)c1` [Compound 577]: the results for the EC50 in assay [1] and in assay [2] were more than 10000 nM and 1410 nM, respectively. The inhibition at 10 µM in assay [1] came to 0%.
Regarding `CN1CCN(c2ccnc3[nH]c(-c4n[nH]c5ncc(-c6cn[nH]c6)cc45)cc23)CC1` [Compound 635, 3-(4-(4-Methylpiperazin-1-yl)-1H-pyrrolo[2,3-b]pyridin-2-yl)-5-(1H-pyrazol-4-yl)-1H-pyrazolo[3,4-b]pyridine], in assay [1], the EC50 is more than 10000 nM and the inhibition at 10 µM was 21.4%. In addition, in assay [2], the EC50 is more than 10000 nM and the inhibition at 10 µM was 26%.
On to `Cn1cc(-c2cnc3[nH]nc(-c4cc5cccnc5[nH]4)c3c2)cn1` [Compound 652, 5-(1-Methyl-1H-pyrazol-4-yl)-3-(1H-pyrrolo[2,3-b]pyridin-2-yl)-1H-pyrazolo[3,4-b]pyridine], for which the EC50 in assay [1] worked out at 772 nM; in assay [2], 230 nM.
`c1csc(-c2ccnc3[nH]c(-c4n[nH]c5ncc(-c6cncc(OC7CCCCC7)c6)cc45)cc23)c1` [Compound 703, 5-(5-(Cyclohexyloxy)pyridin-3-yl)-3-(4-(thiophen-2-yl)-1H-pyrrolo[2,3-b]pyridin-2-yl)-1H-pyrazolo[3,4-b]pyridine]: in assay [1], the EC50 was more than 10000 nM and the inhibition at 10 µM was determined as 11%. For the same compound, the EC50 in assay [2] was determined as 2510 nM.
For `Cc1ncc(-c2cnc3[nH]nc(-c4cc5c(-c6cc(F)cc(NCCN(C)C)c6)ccnc5[nH]4)c3c2)n1C` [Compound 781, N^1-(3-(2-(5-(1,2-Dimethyl-1H-imidazol-5-yl)-1H-pyrazolo[3,4-b]pyridin-3-yl)-1H-pyrrolo[2,3-b]pyridin-4-yl)-5-fluorophenyl)-N^2,N^2-dimethylethane-1,2-diamine] the same measures were more than 10000 nM, 44.5% and 938 nM.

The values are drawn from patent US10285983B2, “3-(1H-pyrrolo[2,3-B]pyridin-2-yl)-1H-pyrazolo[3,4-B] pyridines and therapeutic uses thereof” (Samumed, LLC, priority 2015, dated 2019).
